# Laboratory results reported in patent US10407414B2, “Mannose derivatives for treating bacterial infections” (priority 2015, dated 2019).
# Test system: bacterial strain LF82 binding to the glycoprotein BSA-(Mannose)3 (FimH antagonists)
# Test: Bacterial Binding Assay (BBA)
# Format: cell-based, Escherichia coli
# Conditions: read-out: Bacterial Binding Assay IC50 ± SEM
# Description: The purpose of the Bacterial Binding Assay (BBA) is to determine the inhibition activity of selective FimH antagonists on the bacterial strain LF82 binding to the glycoprotein BSA-(Mannose)3.
# Below is a list of the Materials used to run the BBA are described below. • 1. LB broth: Supplier: Gibco, #10855 • 2. D-PBS: Supplier: Wisent, #311-425-CL • 3. LB agar plates • 4. 96-well black plate (high binding): Supplier: Costar, #3925 • 5. TopSeal™-A adhesive sealing films; Supplier PerkinElmer, #6005185 • 6. Carbonate-bicarbonate buffer pH 9.6 tablets, Supplier: Medicago, #09-8922-24 • 7. Water, Supplier: Gibco, #15230-162 • 8. Bovine serum albumin (BSA): Supplier: Sigma, #A-7888 • 9. (Man)3-BSA (α1-3, α1-6 Mannotriose-BSA, 1 mg), V-Labs, #NGP1336, lot# HGDX37-169-1 • 10. Tween 20: Supplier: Sigma, #P9416 • 11. Bright-Glo Luciferase Assay System: Supplier: Promega, #E2610 • 12. LF82/Luciferase strain: Invasive ability of an Escherichia coli strain isolated from the ileal mucosa of a patient with Crohn's disease. Boudeau J, Glasser A L, Masseret E, Joly B, Darfeuille-Michaud A, Infect Immun. 1999, 67(9), 4499-509
# Solutions and buffers used to run the BBA are described below. • 1. 0.04M carbonate-bicarbonate buffer (coating buffer) • 2. 40 μg/mL BSA-(Man)3: Dissolve 1 mg of (Man)3-BSA in 25 mL of water. • 3. 4000 μg/mL BSA • 4. 40 μg/mL BSA • 5. 1 μg/mL BSA-(Man)3: 150 μL of 40 μg/mL BSA-(Man)3+5.85 mL of 40 μg/mL BSA • 6. 0.5 μg/mL BSA-(Man)3 in 0.02M carbonate-bicarbonate buffer. • 7. 20 μg/mL BSA in 0.02M carbonate-bicarbonate buffer • 8. Blocking buffer (2% BSA/DPBS): 1 g of BSA in 50 mL D-PBS • 9. 2× binding buffer (0.2% BSA/D-PBS): 5 mL of blocking buffer+45 mL D-PBS. • 10. Washing buffer (D-PBS/0.01% Tween 20): 10 μL of Tween 20 in 100 mL D-PBS. • 11. 1× Bright-Glo Luciferase substrate: Dilute 1:1 the Bright-Glo Luciferase Assay System with D-PBS
# The experimental protocol used in this example to run the BBA is described below.
# Overnight culture of LF82/Luciferase strain: Into two Falcon 50 mL tubes, add 20 mL of LB+20 μL of 50 mg/mL Kanamycin and inoculate with a loop from glycerol stock of the LF82/Luciferase strain. Incubate overnight at 37° C. with no shaking.
# Glycoprotein coating of 96-well plates: Add 100 μL/well of 0.5-2 μg/mL BSA-(Man)3. 20 μg/mL BSA is used as the control background. Seal plate using an adhesive sealing film and incubate overnight at room temperature. Wash the 96-well plate three times with 150 μL/well of D-PBS, add 170 μL/well of blocking solution and incubate 45 min (minimum) at room temperature.
# Preparation of bacterial suspension: Mix the two cultures tubes (40 mL) and perform a 1:10 dilution in LB (900 μl LB+100 μl culture. Measure optical density (OD) of the bacterial cultures. OD1 ˜5×10^8 cells/mL. Centrifuge LF82 culture for 20 min at 3500 rpm at room temperature. Re-suspend bacterial pellet in D-PBS and centrifuge again for 20 min at 3500 rpm. Re-suspend bacterial pellet in D-PBS to obtain a bacterial concentration of 2×10^9 bacteria/mL. Dilute 1/10 in D-PBS to obtain a final bacterial concentration of 2×10^8 bacteria/mL (=107 bacteria/50 μL). Perform 1/10 serial dilutions in LB of each bacterial suspension, plate 10 μL of dilutions on LB agar plates (final dilutions of 10^−7) and incubate overnight at 37° C. and count CFUs to determine the actual bacteria density in the assay.
# Bacterial binding assay: Add 147 μL 2× binding buffer to compound plate (containing 3 μL of compound). After blocking step is performed (at least 45 min), wash plates three times with 200 μL/well of D-PBS. With a 100 μL multichannel manual pipettor, add 50 μL/well of compound diluted in 2× binding buffer. With a 100 μL multichannel manual pipettor, add 50 μL/well of bacterial suspension. Agitate at slow speed for 1 min and incubate 40-75 min at room temperature. Wash 5 times with 150 μL/well of washing buffer and then once with D-PBS. Add 100 μL/well of 1× Bright-Glo Luciferase substrate. […]
row,Structure (SMILES),IC50 [nM]
1,"OC[C@H]1O[C@H](C#Cc2cccc3cn[nH]c23)[C@@H](O)[C@@H](O)[C@@H]1O [Compound 1, (2R,3S,4R,5S,6R)-2-(hydroxymethyl)-6-[2-(1H-indazol-7-yl)ethynyl]tetrahydropyran-3,4,5-triol]",98 ± 22
2,"Cc1cc(C#C[C@H]2O[C@H](CO)[C@@H](O)[C@H](O)[C@@H]2O)c2[nH]ncc2c1 [Compound 2, (2R,3S,4R,5S,6R)-2-(hydroxymethyl)-6-[2-(5-methyl-1H-indazol-7-yl)ethynyl]tetrahydropyran-3,4,5-triol]",14 ± 2
3,"OC[C@H]1O[C@H](C#Cc2cccc3[nH]ncc23)[C@@H](O)[C@@H](O)[C@@H]1O [Compound 3, (2R,3S,4R,5S,6R)-2-(hydroxymethyl)-6-[2-(1H-indazol-4-yl)ethynyl]tetrahydropyran-3,4,5-triol]",110 ± 10
4,"Cc1cc(C#C[C@H]2O[C@H](CO)[C@@H](O)[C@H](O)[C@@H]2O)c2[nH]ccc2c1 [Compound 4, (2R,3S,4R,5S,6R)-2-(hydroxymethyl)-6-[2-(5-methyl-1H-indol-7-yl)ethynyl]tetrahydropyran-3,4,5-triol]",46 ± 12
5,"N#Cc1cc(C#C[C@H]2O[C@H](CO)[C@@H](O)[C@H](O)[C@@H]2O)c2nc[nH]c2c1 [Compound 5, 7-[2-[(2R,3S,4R,5S,6R)-3,4,5-trihydroxy-6-(hydroxymethyl)tetrahydropyran-2-yl]ethynyl]-3H-benzimidazole-5-carbonitrile]",20 ± 2
6,"OC[C@H]1O[C@H](C#Cc2cc(Cl)cc3cn[nH]c23)[C@@H](O)[C@@H](O)[C@@H]1O [Compound 6, (2R,3S,4R,5S,6R)-2-[2-(5-chloro-1H-indazol-7-yl)ethynyl]-6-(hydroxymethyl)tetrahydropyran-3,4,5-triol]",24 ± 5
7,"Cc1cc(C#C[C@H]2O[C@H](CO)[C@@H](O)[C@H](O)[C@@H]2O)c2cn[nH]c2c1 [Compound 7, (2R,3S,4R,5S,6R)-2-(hydroxymethyl)-6-[2-(6-methyl-1H-indazol-4-yl)ethynyl]tetrahydropyran-3,4,5-triol]",76 ± 26
8,"OC[C@H]1O[C@H](C#Cc2cccc3nn[nH]c23)[C@@H](O)[C@@H](O)[C@@H]1O [Compound 8, (2R,3S,4R,5S,6R)-2-[2-(3H-benzotriazol-4-yl)ethynyl]-6-(hydroxymethyl)tetrahydropyran-3,4,5-triol]",180 ± 40
9,"OC[C@H]1O[C@H](C#Cc2cccc3c2NCC3)[C@@H](O)[C@@H](O)[C@@H]1O [Compound 9, (2R,3S,4R,5S,6R)-2-(hydroxymethyl)-6-(2-indolin-7-ylethynyl)tetrahydropyran-3,4,5-triol]",725 ± 155
10,"OC[C@H]1O[C@H](C#Cc2cccc3ncoc23)[C@@H](O)[C@@H](O)[C@@H]1O [Compound 10, (2R,3S,4R,5S,6R)-2-[2-(1,3-benzoxazol-7-yl)ethynyl]-6-(hydroxymethyl)tetrahydropyran-3,4,5-triol]",217 ± 133
11,"O=C1Cc2cccc(C#C[C@H]3O[C@H](CO)[C@@H](O)[C@H](O)[C@@H]3O)c2N1 [Compound 11, 7-[2-[(2R,3S,4R,5S,6R)-3,4,5-trihydroxy-6-(hydroxymethyl)tetrahydropyran-2-yl]ethynyl]indolin-2-one]",190 ± 75
12,"O=c1[nH]c2cc(Cl)cc(C#C[C@H]3O[C@H](CO)[C@@H](O)[C@H](O)[C@@H]3O)c2[nH]1 [Compound 12, 6-chloro-4-[2-[(2R,3S,4R,5S,6R)-3,4,5-trihydroxy-6-(hydroxymethyl)tetrahydropyran-2-yl]ethynyl]-1,3-dihydrobenzimidazol-2-one]",16 ± 6
13,"Cn1ncc2cccc(C#C[C@H]3O[C@H](CO)[C@@H](O)[C@H](O)[C@@H]3O)c21 [Compound 13, (2R,3S,4R,5S,6R)-2-(hydroxymethyl)-6-[2-(1-methylindazol-7-yl)ethynyl]tetrahydropyran-3,4,5-triol]",480 ± 150
14,"OC[C@H]1O[C@H](C#Cc2nccc3cn[nH]c23)[C@@H](O)[C@@H](O)[C@@H]1O [Compound 14, (2R,3S,4R,5S,6R)-2-(hydroxymethyl)-6-[2-(1H-pyrazolo[3,4-c]pyridin-7-yl)ethynyl]tetrahydropyran-3,4,5-triol]",350 ± 80
15,"CCCCc1cc(C#C[C@H]2O[C@H](CO)[C@@H](O)[C@H](O)[C@@H]2O)c2[nH]c(=O)[nH]c2c1 [Compound 15, 6-butyl-4-[2-[(2R,3S,4R,5S,6R)-3,4,5-trihydroxy-6-(hydroxymethyl)tetrahydropyran-2-yl]ethynyl]-1,3-dihydrobenzimidazol-2-one]",0.7 ± 0.2
16,"OC[C@H]1O[C@H](C#Cc2cc(Br)cc3cn[nH]c23)[C@@H](O)[C@@H](O)[C@@H]1O [Compound 16, (2R,3S,4R,5S,6R)-2-[2-(5-bromo-1H-indazol-7-yl)ethynyl]-6-(hydroxymethyl)tetrahydropyran-3,4,5-triol]",8 ± 1
17,"COc1ccc(Cn2cc3cc(Br)cc(C#C[C@H]4O[C@H](CO)[C@@H](O)[C@H](O)[C@@H]4O)c3n2)cc1 [Compound 17, (2R,3S,4R,5S,6R)-2-[2-[5-bromo-2-[(4-methoxyphenyl)methyl]indazol-7-yl]ethynyl]-6-(hydroxymethyl)tetrahydropyran-3,4,5-triol]",46 ± 14
18,"COc1ccc(Cn2ncc3cc(Br)cc(C#C[C@H]4O[C@H](CO)[C@@H](O)[C@H](O)[C@@H]4O)c32)cc1 [Compound 18, (2R,3S,4R,5S,6R)-2-[2-[5-bromo-1-[(4-methoxyphenyl)methyl]indazol-7-yl]ethynyl]-6-(hydroxymethyl)tetrahydropyran-3,4,5-triol]",67 ± 26
19,"CCCCc1cc(C#C[C@H]2O[C@H](CO)[C@@H](O)[C@H](O)[C@@H]2O)c2[nH]nnc2c1 [Compound 19, (2R,3S,4R,5S,6R)-2-[2-(6-butyl-3H-benzotriazol-4-yl)ethynyl]-6-(hydroxymethyl)tetrahydropyran-3,4,5-triol]",2 ± 0.6
20,"CCCCc1cc(C#C[C@H]2O[C@H](CO)[C@@H](O)[C@H](O)[C@@H]2O)c2[nH]cnc2c1 [Compound 20, (2R,3S,4R,5S,6R)-2-[2-(6-butyl-3H-benzimidazol-4-yl)ethynyl]-6-(hydroxymethyl)tetrahydropyran-3,4,5-triol]",2 ± 0.2
21,"CCCCn1ncc2c(C#C[C@H]3O[C@H](CO)[C@@H](O)[C@H](O)[C@@H]3O)cccc21 [Compound 21, (2R,3S,4R,5S,6R)-2-[2-(1-butylindazol-4-yl)ethynyl]-6-(hydroxymethyl)tetrahydropyran-3,4,5-triol]",22 ± 0.5
22,"CCCCc1cc(C#C[C@H]2O[C@H](CO)[C@@H](O)[C@H](O)[C@@H]2O)c2c(cnn2C)c1 [Compound 22, (2R,3S,4R,5S,6R)-2-[2-(5-butyl-1-methyl-indazol-7-yl)ethynyl]-6-(hydroxymethyl)tetrahydropyran-3,4,5-triol]",53 ± 4
23,"CCCCc1cc(C#C[C@H]2O[C@H](CO)[C@@H](O)[C@H](O)[C@@H]2O)c2nn(C)cc2c1 [Compound 23, (2R,3S,4R,5S,6R)-2-[2-(5-butyl-2-methyl-indazol-7-yl)ethynyl]-6-(hydroxymethyl)tetrahydropyran-3,4,5-triol]",9
